Patent publication US20050112573A1, “Method of detecting toxic substance” (priority 2001, published 2005)

System: yeast genes (level of expressed mRNA)
Test: DNA chip analysis of expressed mRNA of yeast genes after 2 h culture with a toxic chemical substance
Assay type: cell-based, Saccharomyces cerevisiae S288C
Conditions: for The level of expressed mRNA in the presence of chemical substance/: ratio to no chemical; for The level of expressed mRNA in the presence of chemical substance/ (ratio to absence): transport facilitation protein gene; for The level of expressed mRNA in the presence of chemical substance/ (ratio to absence of chemical substance): stress protein genes, DNA chip; for The level of expressed mRNA in the presence of chemical substance/ in its absence, gene YPR184W: yeast gene YPR184W
Experimental: Yeast (Saccharomyces cerevtisiae S288C (α SUC2mal mel gap2 CUP1)) were cultured at 25° C. on YPD medium (yeast extract 1%, polypepton 2%, glucose 2%). One of toxic chemical substances was added to the cell at logarithmic growth phase, and the cell was further cultured for two hours. Cell was cultured without any chemical substance in the same condition, and was used as control. Concentrations of the chemical substances were defined to inhibit the growth of the yeast but not lead to death.
After the completion of cultivation, the culture was centrifuged to collect the cells. To the cells, sodium acetate buffer (50 mM sodium acetate, 10 mM EDTA, 1% SDS) was added, and the mixture was shaken at 65° C. for five minutes, followed by returning to room temperature, and obtaining the supernatant, which procedure was repeated two times. To the supernatant, ½ amount of a solution of phenol/chloroform was added, and the mixture was centrifuged to give a supernatant, which was added with an equal amount of chloroform, and the mixture was centrifuged to give a supernatant. To the supernatant, an equal amount of isopropanol containing 0.3 M sodium acetate was added, and the mixture was allowed to stand at room temperature for 30 minutes, after which the mixture was centrifuged to give a sediment of the whole RNAs. Seventy % ethanol was added to the sediment, and the mixture was again centrifuged to give a sediment, which was then dried and dissolved in water. mRNA was isolated from the whole RNAs as followings. In view of the fact that a poly A chain is attached to the 3′ terminus of mRNA, a polynucleotide having a poly T structure which was immobilized on the surface of latex beads was used to trap the mRNA, and then the mRNA was washed and eluted with spine column (Oligotex-dT30<Super>mRNA Purification Kit, Takara). Reverse transcription of the mRNA was conducted with a reverse transcriptase (Super Script II Reverse Transcriptase; catalogue No. 18064-014, GibcoBRL) using fluorescence-labeled nucleotides to give cDNAs that were introduced with Cy3-dUTP or Cy5-dUTP during the reverse transcription.
The labeled cDNAs were dissolved in TE buffer (10 mM Tris-HCl/1 mM EDTA, pH8.0), and the solution was dropped on the DNA chip containing the whole genes of yeast (DNA Chip Research Inc. Japan) so that the cDNAs were hybridized on the DNA chip at 65° C. for over 12 hours. The fluoresces intensity of the DNA chip was read with a scanner, and the ratio relative to the fluorescence intensity resulting from the absence of chemical substance was estimated as the following, which is shown in Tables 1 to 9: [formula]
In the Tables, “Intensity” indicated in the rightmost column is a value of the level of expressed mRNA of each gene in control cells as divided by the average level of the expressions of the whole genes.

sodium dodecylbenzosulfonate [(17)]
The level of expressed mRNA in the presence of chemical substance/The level of expressed mRNA in the absence of chemical substance (yeast gene YOR198C): 1.1
The level of expressed mRNA in the presence of chemical substance/ (yeast gene YOR220W): 3.5
The level of expressed mRNA in the presence of chemical substance/ (yeast gene YOR225W): 0.9
The level of expressed mRNA in the presence of chemical substance/in the absence of chemical substance (yeast gene YOR226C): 1.0
The level of expressed mRNA in the presence of chemical substance/ (yeast gene YOR228C): 1.0
The level of expressed mRNA in the presence of chemical substance/ (in its absence), gene YOR251C (yeast gene YOR251C, ratio of DNA chip fluorescence intensity to that without chemical substance): 0.9
The level of expressed mRNA in the presence of chemical substance/ (yeast gene YOR255W): 1.0
The level of expressed mRNA in the presence of chemical substance/The level of expressed mRNA in the absence of chemical substance (yeast gene YOR259C): 0.9
The level of expressed mRNA in the presence of chemical substance/The level of expressed mRNA in the absence of chemical substance (yeast gene YOR261C): 1.0
The level of expressed mRNA in the presence of chemical substance/ (ratio to absence) (yeast gene YOR270C): 0.9
The level of expressed mRNA in the presence of chemical substance/ (ratio to absence) (yeast gene YOR273C): 3.2
The level of expressed mRNA in the presence of chemical substance/The level of expressed mRNA in the absence of chemical substance (yeast gene YOR288C): 1.5
The level of expressed mRNA in the presence of chemical substance/in the absence of chemical substance (yeast gene YOR303W): 1.2
The level of expressed mRNA in the presence of chemical substance/ (ratio to absence), gene YOR316C (yeast gene YOR316C, mitochondria-located protein genes, 2 h culture with chemical): 0.8
The level of expressed mRNA in the presence of chemical substance/ (ratio to absence) (yeast gene YOR332W): 1.3
The level of expressed mRNA in the presence of chemical substance/ (in its absence), gene YOR348C (yeast gene YOR348C, ratio of DNA chip fluorescence intensity to that without chemical substance): 0.9
The level of expressed mRNA in the presence of chemical substance/The level of expressed mRNA in the absence of chemical substance (yeast gene YOR355W): 0.8
The level of expressed mRNA in the presence of chemical substance/ (in its absence), gene YOR363C (yeast gene YOR363C, ratio of DNA chip fluorescence intensity to that without chemical substance): 1.3
The level of expressed mRNA in the presence of chemical substance/The level of expressed mRNA in the absence of chemical substance (yeast gene YOR383C): 1.4
The level of expressed mRNA in the presence of chemical substance/ (ratio to absence), gene YPL040C (yeast gene YPL040C, mitochondria-located protein genes, 2 h culture with chemical): 0.8
The level of expressed mRNA in the presence of chemical substance/ (ratio to absence of chemical substance) (yeast gene YPL059W): 1.8
The level of expressed mRNA in the presence of chemical substance/in the absence of chemical substance (yeast gene YPL088W): 9.1
The level of expressed mRNA in the presence of chemical substance/The level of expressed mRNA in the absence of chemical substance (yeast gene YPL089C): 1.5
The level of expressed mRNA in the presence of chemical substance/The level of expressed mRNA in the absence of chemical substance (yeast gene YPL109C): 1.2
The level of expressed mRNA in the presence of chemical substance/ (ratio to absence), gene YPL134C (yeast gene YPL134C, mitochondria-located protein genes, 2 h culture with chemical): 1.3
The level of expressed mRNA in the presence of chemical substance/ (ratio to absence of chemical substance) (yeast gene YPL140C): 0.9
The level of expressed mRNA in the presence of chemical substance/ (ratio to absence) (yeast gene YPL147W): 1.5
The level of expressed mRNA in the presence of chemical substance/ (in its absence), gene YPL148C (yeast gene YPL148C, ratio of DNA chip fluorescence intensity to that without chemical substance): 1.0
The level of expressed mRNA in the presence of chemical substance/The level of expressed mRNA in the absence of chemical substance (yeast gene YPL149W): 2.2
The level of expressed mRNA in the presence of chemical substance/The level of expressed mRNA in the absence of chemical substance (yeast gene YPL154C): 1.6
The level of expressed mRNA in the presence of chemical substance/ (yeast gene YPL166W): 1.1
The level of expressed mRNA in the presence of chemical substance/ (ratio to absence of chemical substance) (yeast gene YPL194W): 1.0
The level of expressed mRNA in the presence of chemical substance/ (yeast gene YPL202C): 1.1
The level of expressed mRNA in the presence of chemical substance/ (ratio to absence) (yeast gene YPL224C): 1.3
The level of expressed mRNA in the presence of chemical substance/ (ratio to absence) (yeast gene YPL265W): 0.5
The level of expressed mRNA in the presence of chemical substance/ (ratio to absence) (yeast gene YPL271W): 1.2
The level of expressed mRNA in the presence of chemical substance/ (ratio to absence) (yeast gene YPL274W): 0.7
The level of expressed mRNA in the presence of chemical substance/ (ratio to absence of chemical substance) (yeast gene YPR005C): 1.0
The level of expressed mRNA in the presence of chemical substance/ (yeast gene YPR077C): 1.4
The level of expressed mRNA in the presence of chemical substance/The level of expressed mRNA in the absence of chemical substance (yeast gene YPR103W): 1.2
The level of expressed mRNA in the presence of chemical substance/The level of expressed mRNA in the absence of chemical substance (yeast gene YPR108W): 1.0
The level of expressed mRNA in the presence of chemical substance/ (ratio to absence) (yeast gene YPR124W): 1.0
The level of expressed mRNA in the presence of chemical substance/ (yeast gene YPR147C): 1.1
The level of expressed mRNA in the presence of chemical substance/ (in its absence), gene YPR165W (yeast gene YPR165W, ratio of DNA chip fluorescence intensity to that without chemical substance): 2.3
The level of expressed mRNA in the presence of chemical substance/in the absence of chemical substance (yeast gene YPR167C): 1.7
The level of expressed mRNA in the presence of chemical substance/ in its absence, gene YPR184W (energy system protein genes, 2 h culture with the chemical, ratio to control without chemical): 1.0
The level of expressed mRNA in the presence of chemical substance/ in its absence, gene YPR184W (ratio of DNA chip fluorescence intensity to that without chemical substance): 1.0
The level of expressed mRNA in the presence of chemical substance/ (ratio to absence) (yeast gene YPR201W): 0.8
